{
  "source": "ChEMBL document CHEMBL5331060",
  "about": "“Bisindole natural products: A vital source for the development of new anticancer drugs” (Eur J Med Chem, 2022)",
  "system": "A549",
  "experiment": "Antiproliferative activity against human A549 cells assessed as inhibition of cell growth incubated for 72 hrs by MTT assay",
  "assay_type": "functional, cell-based",
  "conditions": "A549, 72 h, pooled result: one value given for 8 cell lines, strains, targets or settings",
  "data": [
    {"compound": "c1ccc2c(C3(c4c[nH]c5ccccc45)CCCCC3)c[nH]c2c1", "values": [
      {"measurement": "IC50", "value": 18.7, "unit": "µM"}
    ]}
  ]
}
